Test [1] deals with Arabidopsis thaliana plants. In words: SOA1 phenotypic analysis of herbicide-treated Arabidopsis plants (MIC, Tmic, leaf traits). The note with it: for Characteristic symptoms (phenotype): herbicide treated Arabidopsis; for Dev. leafCurling / Dev. leafTwisting / Dev. matureLeafAnthocyanins / Dev. matureLeafChlorosis / Dev. matureLeafNecrosis / Dev. newLeafAnthocyanins / Dev. newLeafChlorosis / Dev. newLeafNecrosis / Dev. pointedLeaves: numeric value standardized to mock treated; for Dev. leafWidth: numeric value standardized to the average response for the mock treated tissues; for Symptom Class: three-week-old Arabidopsis plants treated with herbicide, phenotype classes of FIG. 12. It counts as in vivo.

Test [2] relates to Arabidopsis thaliana. In words: MOA1 phenotypic profiling of Arabidopsis sprayed with unknown and commercial herbicides. The test is classed as in vivo. To be noted: Ward's method.
For test [3], the system named is Magnaporthe grisea. The test is classed as cell-based.
Test [4] has as its system Arabidopsis thaliana. Description: MOA1 biochemical (metabolite) profiling by LC-MS and GC-MS.
Where [5] appears, read: 250 μg/ml (partially inhibitory).

Take `CP(=O)(O)CCC(N)C(=O)O` (stereo not drawn) [Glufosinate]: in test [1], the “Dev. tMic” value is reported as 1; the “Characteristic symptoms (phenotype)” value was “Chlorosis and leaf curling”; the “Dev. leafCurling” value was 2; the “Dev. leafTwisting” value is reported as 1. For the same molecule, in test [1], the “Dev. matureLeafAnthocyanins” value is reported as 0, the “Dev. matureLeafChlorosis” value came to 3, the “Dev. matureLeafNecrosis” value worked out at 0 and the “Dev. newLeafAnthocyanins” value came to 0. In test [1], the “Dev. newLeafChlorosis” value is reported as 3, the “Dev. newLeafNecrosis” value is listed as 0, the “Dev. pointedLeaves” value is 1 and the “Dev. leafWidth” value was −2. In addition, in test [1], the “Symptom Class” value is 3. Further, in test [2], the “Hierarchical cluster analysis of the eleven phenotypic characteristics / phenotype” value is “clustered with amitrole”. For the same molecule, the “Nitrogen sources M. grisea can utilize in presence of compound” value in test [3] is “only able to utilize glutamine and glutamate as nitrogen sources”. Further, the “Stress-related (commonly regulated) metabolites” value in test [4] (MOA1, 20 min and 1 hr after spraying) was “Only a few, if any, stress-related metabolites were observed”.

In the case of `O=C(O)CNCP(=O)(O)O` [Glyphosate], in test [1], the “Dev. tMic” value is on record as 2, the “Characteristic symptoms (phenotype)” value was “anthocyanin accumulation in the older leaves accompanied by chlorosis of the newly emerging leaves”, the “Dev. leafCurling” value turned out to be 0 and the “Dev. leafTwisting” value was 0. In test [1], the “Dev. matureLeafAnthocyanins” value is recorded as 3, the “Dev. matureLeafChlorosis” value stood at 1, the “Dev. matureLeafNecrosis” value is 3 and the “Dev. newLeafAnthocyanins” value is given as 1. Besides, in test [1], the “Dev. newLeafChlorosis” value worked out at 2, the “Dev. newLeafNecrosis” value was 0, the “Dev. pointedLeaves” value is reported as 1 and the “Dev. leafWidth” value is 0. Besides, the “Symptom Class” value in test [1] turned out to be 4. Also, in test [2], the “Hierarchical cluster analysis of the eleven phenotypic characteristics / phenotype” value was “clustered with amitrole”. Also, in test [3] (setting [5]), the “Growth of M. grisea with ammonium or glutamine provided” value is reported as “Little growth defect” and the “Growth of M. grisea with nitrate, nitrite, or glutamate as the sole nitrogen source” value was “inhibited growth”. For the same molecule, the “Tyrosine level (metabolite downstream from the SOA)” value in test [4] (after one hour) is recorded as “decreased relative to the control after one hour”.

For the origin of these results see patent US20040019430A1, “Methods and systems for analyzing complex biological systems” (priority 2001, published 2004).
